The source of these data is paper PMC9596378, “Discovery and molecular basis of subtype-selective cyclophilin inhibitors” (Nature Chemical Biology, 2022).

Where two headings read alike, the source gives them in different places. Where only a bound is given, the exact number is not on record here.

The target of one data set is Cyp40 (Homo sapiens, UniProt Q08752). In words: Chymotrypsin coupled prolyl-isomerase assay. How it is done:
(§1) Adapting a previously described protocol, with an Agilent Bravo Velocity 11 with a 384ST head, 90 µL assay buffer (25 mM HEPES pH 7.3, 100 mM NaCl, 0.01% Triton X-100) containing 5.28 nM cyclophilin was added into a flat, clear-bottom, black 384-well plate pre-chilled in a Corning CoolBox at 2–3 °C. Five microliters of compound pre-dissolved in 5% DMSO/assay buffer was then added to appropriate wells and incubated at 2–3 °C for 5 min. Five microliters of 0.5 mM α-chymotrypsin from bovine pancreas (Type II, lyophilized powder, Millipore-Sigma) in 20% 1 mM HCl/Assay Buffer was then added to each well and incubated at 2–3 °C for 5 min. The plate was then quickly transferred to a FLIPR Tetra High-Throughput Cellular Screening System (Molecular Devices). Using the internal liquid handling system of the FLIPR, 1 µL 0.5 mM Suc-AAPF-AMC (Chymotrypsin Substrate II, Millipore-Sigma) dissolved in 0.55 M LiCl/2,2,2-trifluoroethanol was added to each well, which was then mixed for 5 s, followed by immediate fluorescence measurements every 1 s for 330 s using a 360–380 nm excitation LED module and a 400–460 nm emission filter. Final concentrations of the plate include 5 nM cyclophilin, 0.25% DMSO, 25 µM α-chymotrypsin, 5 µM Suc-AAPF-AMC. Raw fluorescence data was analyzed by non-linear regression analysis with Prism v.9 by fitting one-phase association curves to each well. […] Rate constants calculated for each well (s^−1) were then normalized to substrate only (no prolyl-isomerase) and enzyme + substrate only controls. IC50 values were calculated as the value at which 50% inhibition was achieved on the non-linear regression fitted curve of each compound.

In a further data set the target is T1, CypE (Homo sapiens, UniProt Q9UNP9).
T1 construct: PPIE (UniProtKB Entry Q9UNP9: residues 131–301); host or cells: E. coli BL21(DE3)
In words: Chymotrypsin coupled prolyl-isomerase assay. It is filed as biochemical. Conditions: wild-type CypE; read-out: Wild-Type Cyclophilin Prolyl Isomerase Inhibition IC50 Values, CypE. How it is done: as §1

For the next data set, the target named is T2, CypH (Homo sapiens, UniProt O43447).
T2 construct: PPIH (UniProtKB Entry O43447: residues 1–177); His6 with TEV site (2BT vector leader) (N); made in house; host or cells: E. coli BL21(DE3)
In words: Chymotrypsin coupled prolyl-isomerase assay. It is filed as biochemical. How it is done: as §1

For another data set, the target named is T3, CypA (Homo sapiens, UniProt P62937).
T3 construct: PPIA (UniProtKB Entry P62937: residues 1–165); made in house; host or cells: E. coli BL21(DE3)
In words: Chymotrypsin coupled prolyl-isomerase assay. In kind it is biochemical. Particulars: wild-type CypA; read-out: Wild-Type Cyclophilin Prolyl Isomerase Inhibition IC50 Values, CypA. How it is done:
as §1

A further data set deals with T4, CypG (Homo sapiens, UniProt Q13427).
T4 construct: PPIG (UniProtKB Entry Q13427: residues 1–179); His6 with thrombin site (pET28a LIC leader) (N); host or cells: E. coli BL21(DE3)
T4 sequence (Q13427 1-179): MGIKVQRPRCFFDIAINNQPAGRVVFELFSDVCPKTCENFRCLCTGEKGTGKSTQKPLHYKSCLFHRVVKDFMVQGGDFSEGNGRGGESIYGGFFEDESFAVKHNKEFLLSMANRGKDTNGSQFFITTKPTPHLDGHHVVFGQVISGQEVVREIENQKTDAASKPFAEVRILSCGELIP
In words: Chymotrypsin coupled prolyl-isomerase assay. It is filed as biochemical. Conditions: wild-type CypG; read-out: Wild-Type Cyclophilin Prolyl Isomerase Inhibition IC50 Values, CypG. How it is done: as §1

The target in another data set is T5, CypC (Homo sapiens, UniProt P45877).
T5 construct: PPIC (UniProtKB Entry P45877: residues 24–212); host or cells: E. coli BL21(DE3)
In words: Chymotrypsin coupled prolyl-isomerase assay. In kind it is biochemical. How it is done:
as §1

The target of another data set is CypD (Homo sapiens, UniProt P30405). In words: Chymotrypsin coupled prolyl-isomerase assay. How it is done:
as §1, with “Five” for “Adapting a previously described protocol, with an Agilent Bravo Velocity 11 with a 384ST head, 90 µL assay buffer (25 mM HEPES pH 7.3, 100 mM NaCl, 0.01% Triton X-100) containing 5.28 nM cyclophilin was added into a flat, clear-bottom, black 384-well plate pre-chilled in a Corning CoolBox at 2–3 °C. Five”, “Final concentrations of the plate include 5 nM cyclophilin, 0.25% DMSO, 25 µM α-chymotrypsin, 5 µM Suc-AAPF-AMC.” left out, “controls.” for “controls. IC50 values were calculated as the value at which 50% inhibition was achieved on the non-linear regression fitted curve of each compound.”

The next data set has as its target T6, PPIL1 (Homo sapiens, UniProt Q9Y3C6).
T6 construct: PPIL1 (UniProtKB Entry Q9Y3C6: residues 1–166); made in house; host or cells: E. coli BL21(DE3)
T6 sequence (Q9Y3C6 1-166): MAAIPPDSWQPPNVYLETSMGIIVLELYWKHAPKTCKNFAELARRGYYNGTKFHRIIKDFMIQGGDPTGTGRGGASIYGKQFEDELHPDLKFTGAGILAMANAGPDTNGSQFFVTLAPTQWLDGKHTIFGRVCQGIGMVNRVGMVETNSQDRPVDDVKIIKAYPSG
In words: Chymotrypsin coupled prolyl-isomerase assay. Particulars: wild-type PPIL1; read-out: Wild-Type Cyclophilin Prolyl Isomerase Inhibition IC50 Values, PPIL1. In kind it is biochemical.

The target of a further data set is T7, CypB (Homo sapiens, UniProt P23284).
T7 construct: PPIB (UniProtKB Entry P23284: residues 34–216); His6 with TEV site (2BT vector leader) (N); made in house; host or cells: E. coli BL21(DE3)
In words: biochemical. Conditions: wild-type CypB; read-out: Wild-Type Cyclophilin Prolyl Isomerase Inhibition IC50 Values, CypB. How it is done: as §1

Another data set has as its target T8, NKTR (Homo sapiens, UniProt P30414).
T8 construct: NKTR (UniProtKB Entry P30414: residues 7–179); host or cells: E. coli BL21(DE3)
T8 sequence (P30414 7-179): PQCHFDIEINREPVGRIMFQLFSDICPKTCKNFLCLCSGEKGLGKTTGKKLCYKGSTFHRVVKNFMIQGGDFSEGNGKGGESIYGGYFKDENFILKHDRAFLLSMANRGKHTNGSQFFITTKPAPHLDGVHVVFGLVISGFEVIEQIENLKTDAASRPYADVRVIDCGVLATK
In words: Chymotrypsin coupled prolyl-isomerase assay. In kind it is biochemical. Particulars: wild-type NKTR; read-out: Wild-Type Cyclophilin Prolyl Isomerase Inhibition IC50 Values, NKTR.

In another data set the target is T9, PPWD1 (Homo sapiens, UniProt Q96BP3).
T9 construct: PPWD1 (UniProtKB Entry Q96BP3: residues 473–646); host or cells: E. coli BL21(DE3)
T9 sequence (Q96BP3 473-646): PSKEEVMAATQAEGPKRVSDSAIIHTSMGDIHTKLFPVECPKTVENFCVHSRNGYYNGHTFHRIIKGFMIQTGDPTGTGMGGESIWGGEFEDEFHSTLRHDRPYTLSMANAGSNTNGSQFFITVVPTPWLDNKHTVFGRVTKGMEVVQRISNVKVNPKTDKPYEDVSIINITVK
In words: Chymotrypsin coupled prolyl-isomerase assay. It is filed as biochemical.

[1] abbreviates: Wild-Type Cyclophilin Prolyl Isomerase Inhibition IC50 Values, Cyp40, wild-type Cyp40.
Where [2] appears, read: wild-type CypH, read-out: Wild-Type Cyclophilin Prolyl Isomerase Inhibition IC50 Values, CypH.
Setting [3] is: wild-type CypC, read-out: Wild-Type Cyclophilin Prolyl Isomerase Inhibition IC50 Values, CypC.
Setting [4] is: Wild-Type Cyclophilin Prolyl Isomerase Inhibition IC50 Values, CypD, wild-type CypD.
The mark [5] stands for this setting: prolyl-isomerase inhibition, 5 nM cyclophilin, read-out: IC50 PPWD1.
Setting [6] is: wild-type PPWD1, read-out: Wild-Type Cyclophilin Prolyl Isomerase Inhibition IC50 Values, PPWD1.
Where [7] appears, read: read-out: Wild-Type Cyclophilin Prolyl Isomerase Inhibition IC50 Values, Cyp40, wild-type Cyp40.
Where [8] appears, read: prolyl-isomerase inhibition, 5 nM cyclophilin, read-out: IC50 CypH.
Setting [9] is: read-out: IC50 CypD, prolyl-isomerase inhibition, 5 nM cyclophilin, Suc-AAPF-AMC, mean±s.e.m. of 3 technical replicates (B52, B53, C3A wild-type: mean±s.d. of 4 independent replicates).

T1 sequence (Q9UNP9 131-301): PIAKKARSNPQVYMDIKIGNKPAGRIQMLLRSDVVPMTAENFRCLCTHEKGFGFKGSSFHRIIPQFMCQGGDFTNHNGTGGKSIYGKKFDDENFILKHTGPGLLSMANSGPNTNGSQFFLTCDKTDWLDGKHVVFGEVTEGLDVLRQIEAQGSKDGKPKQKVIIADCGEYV
T7 sequence (P23284 34-216): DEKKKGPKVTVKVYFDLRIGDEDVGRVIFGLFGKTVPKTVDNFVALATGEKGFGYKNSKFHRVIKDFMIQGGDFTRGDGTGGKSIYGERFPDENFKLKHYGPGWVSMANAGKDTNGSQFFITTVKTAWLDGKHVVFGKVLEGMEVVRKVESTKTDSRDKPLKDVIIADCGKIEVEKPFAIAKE
Cyp40, sequence (Q08752 1-183): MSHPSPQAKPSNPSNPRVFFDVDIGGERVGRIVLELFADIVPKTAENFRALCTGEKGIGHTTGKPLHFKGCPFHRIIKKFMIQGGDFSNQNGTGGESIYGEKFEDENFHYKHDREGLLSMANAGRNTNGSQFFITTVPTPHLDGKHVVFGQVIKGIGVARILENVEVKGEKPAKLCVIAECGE
T3 sequence (P62937 whole entry, the tested form may be a part): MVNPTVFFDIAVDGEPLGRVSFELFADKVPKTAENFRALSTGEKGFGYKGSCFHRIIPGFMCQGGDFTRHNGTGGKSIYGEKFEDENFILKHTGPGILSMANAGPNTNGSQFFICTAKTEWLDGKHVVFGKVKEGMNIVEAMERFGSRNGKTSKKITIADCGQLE
CypD, sequence (P30405 45-207): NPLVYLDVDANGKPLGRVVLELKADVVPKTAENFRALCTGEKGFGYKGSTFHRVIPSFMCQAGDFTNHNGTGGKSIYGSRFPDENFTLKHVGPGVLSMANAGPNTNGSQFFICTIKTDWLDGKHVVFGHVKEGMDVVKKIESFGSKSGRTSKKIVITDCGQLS
T5 sequence (P45877 24-212): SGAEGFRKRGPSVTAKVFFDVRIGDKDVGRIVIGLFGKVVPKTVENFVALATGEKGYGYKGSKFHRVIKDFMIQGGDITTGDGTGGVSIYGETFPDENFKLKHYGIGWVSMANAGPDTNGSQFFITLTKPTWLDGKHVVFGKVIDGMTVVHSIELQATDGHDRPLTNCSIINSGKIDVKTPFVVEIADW
T2 sequence (O43447 whole entry, the tested form may be a part): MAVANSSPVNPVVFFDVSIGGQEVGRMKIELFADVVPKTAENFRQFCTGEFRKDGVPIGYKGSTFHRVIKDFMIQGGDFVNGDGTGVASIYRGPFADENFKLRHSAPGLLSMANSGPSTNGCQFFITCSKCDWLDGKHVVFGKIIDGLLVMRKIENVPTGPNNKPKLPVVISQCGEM

For `NCCOCCNC(=O)C1CCNC(=O)C=CC(=O)N2CCCC(C2)C(=O)NC(Cc2ccc(C(=O)c3ccccc3)cc2)C(=O)NCc2ccccc2CC(=O)N1` (centres unmarked) [Compound A14], the IC50 against Cyp40 (setting [1]) is 3 µM; at CypE it was 13 µM; on CypH (setting [2]), greater than 100 µM; on CypA it was 19 µM; at CypG, greater than 100 µM; at CypC (setting [3]) it was 9 µM. Besides, the IC50 was 3.8 µM on CypD (setting [4]); 10 µM at PPIL1; 2.7 µM at CypB; greater than 100 µM on NKTR; roughly 100 µM at PPWD1 (setting [5]); 100 µM on PPWD1 (setting [6]).
`CC12CCCN(C1)C(=O)C=CC(=O)NCCC(C(=O)NCCOCCN)NC(=O)Cc1ccccc1CNC(=O)C(Cc1ccco1)NC2=O` (centres unmarked) [Compound A25]: the IC50 on Cyp40 (setting [1]) is 2.6 µM; at CypE, 14 µM; at CypH (setting [2]), 24 µM; on CypA, 16 µM; on CypG it was 1.9 µM; on CypC (setting [3]), 6.5 µM. Besides, the IC50 against CypD (setting [4]) is 3.6 µM; at PPIL1, 11 µM; at CypB, 0.9 µM; at NKTR, 8 µM; at PPWD1 (setting [6]) it was 40 µM.
Consider `NCCOCCNC(=O)C1CCNC(=O)C=CC(=O)N2CCCC(Cc3ccccc3)(C2)C(=O)NC(Cc2ccco2)C(=O)NCc2ccccc2CC(=O)N1` (centres unmarked) [Compound A26], for which the IC50 at Cyp40 (setting [1]) was found to be 0.4 µM; at CypE, 0.8 µM; on CypH (setting [2]) it was 2.7 µM; on CypA it was 1.1 µM; on CypG, 0.84 µM; at CypC (setting [3]), 0.53 µM. Also, the IC50 amounted to 0.2 µM against CypD; 0.6 µM at PPIL1; 0.1 µM at CypB; 4.2 µM at NKTR; 3.4 µM at PPWD1 (setting [6]). Also, the “increase of CypD potency relative to JOMBt” value at CypD came to 85 fold.
In the case of `CC(=O)c1ccc(-c2ccc(C[C@@H]3NC(=O)[C@]4(Cc5ccccc5)CCCN(C4)C(=O)/C=C/C(=O)NCC[C@@H](C(=O)NCCOCCN)NC(=O)Cc4ccccc4CNC3=O)cc2)cc1` [Compound B15], the IC50 on Cyp40 (setting [7]) was 0.06 µM; on CypE, 0.15 µM; at CypH (setting [8]) it was roughly 80 µM; at CypH (setting [2]) it was 80 µM; at CypA, 0.4 µM; on CypG, 1.8 µM. Moreover, the IC50 at CypC (setting [3]) was 0.38 µM; at CypD (setting [9]), 0.038 µM; at PPIL1 it was 0.1 µM; on CypB, 0.08 µM; at NKTR it was 4.9 µM; on PPWD1 (setting [6]), 0.88 µM. Moreover, at CypD, the “preference for CypD over CypC and Cyp40” value is 2- to 20 fold.
Take `NCCOCCNC(=O)[C@@H]1CCNC(=O)/C=C/C(=O)N2CCC[C@](Cc3ccccc3)(C2)C(=O)N[C@@H](Cc2ccc(-c3ccc(C(=O)O)cc3)cc2)C(=O)NCc2ccccc2CC(=O)N1` [Compound B20]: the IC50 on Cyp40 is 2.6 µM; at CypE, 1.6 µM; on CypH (setting [2]), greater than 100 µM; on CypA, 3.1 µM; at CypG it was greater than 100 µM; on CypC (prolyl-isomerase inhibition, 5 nM cyclophilin, read-out: IC50 CypC) it was roughly 60 µM. Moreover, the IC50 is 60 µM at CypC (setting [3]); 0.3 µM on CypD (setting [9]); 1.4 µM at PPIL1; 2 µM on CypB; greater than 100 µM on NKTR; greater than 100 µM on PPWD1 (setting [6]). Also, the “preference for CypD over CypC and Cyp40” value on CypD is reported as “at least ninefold”.
As for `NCCOCCNC(=O)[C@@H]1CCNC(=O)/C=C/C(=O)N2CCC[C@](Cc3ccccc3)(C2)C(=O)N[C@@H](Cc2ccc(-c3ccc(CC(=O)O)cc3)cc2)C(=O)NCc2ccccc2CC(=O)N1` [Compound B22], the IC50 at Cyp40 (setting [7]) is 1 µM; on CypE, 0.13 µM; on CypH (setting [8]), roughly 100 µM; on CypH (setting [2]) it was 100 µM; at CypA, 0.7 µM; on CypG, 10 µM. Moreover, the IC50 at CypC (setting [3]) was 14 µM; on CypD (setting [9]), 0.04 µM; on PPIL1, 0.6 µM; at CypB, 0.23 µM; at NKTR, greater than 100 µM; at PPWD1 (setting [5]) it was roughly 50 µM. Also, the IC50 at PPWD1 (setting [6]) worked out at 50 µM.

For orientation: IC50 means the midpoint of a concentration-inhibition curve.
